Results taken from paper PMC11903733 (Frontiers in Pharmacology, 2025).

Assays:
LSD1 = biological target: T1, LSD1 (Homo sapiens, UniProt O60341); assay: Lance Ultra LSD1 demethylase TR-FRET enzyme inhibition assay; format: biochemical; details: for LSD2/LSD1 selectivity (folds): ratio of LSD2 IC50 to LSD1 IC50; for IC50: recombinant human LSD1 (172–852 aa) 2 nM, Bio-H3K4me2 substrate, 1 h, TR-FRET, mean ± SD, n = 3
T1 construct: Recombinant human LSD1 (172–852 aa); by word order LSD1 from Sino Biological
From the text: (§1) These were utilized in both in vitro and in vivo assays. Iscove’s Modified Dulbecco’s Medium (IMDM), Roswell Park Memorial Institute (RPMI)-1640 medium, fetal bovine serum (FBS) and penicillin/streptomycin were purchased from Gibco (Grand Island, New Nork, United States). Recombinant human LSD1 (172–852 aa) and full-length LSD2 were obtained from Sino Biological Inc. and ActiveMotif.
(§2) The inhibitory effects of the tested compounds on LSD1 and LSD2 enzymes were methodically assessed using the Lance Ultra LSD1 Histone H3-Lysine 4 Demethylase Assay Kit from PerkinElmer, adhering to previously published methodologies ([Li et al., 2022]). In brief, the reaction was initiated by adding 4 μL of enzyme solution, with concentrations specified at 2 nM for LSD1 or 172 nM for LSD2, 4 μL of substrate solution [2.5 μM Bio-H3K4me2 ([…])], and 2 μL of tested compound to a Tris buffer (50 mM Tris-HCl, 50 mM NaCl, 0.01% Tween 20, 1 mM DTT, 10 μM FAD, 10% glycerol, pH 9.0) at room temperature and incubated for 1 h. Following the incubation, 5 μL of a detection mixture, comprising an Eu-labeled H3K4me0 antibody and ULight Streptavidin, was added to the reaction. The fluorescence intensity was then measured employing TR-FRET mode with excitation and emission wavelengths set at 320 nm and 665 nm, respectively, utilizing the Envision (PerkinElmer) system. Each experiment was performed in triplicate.

LSD2 = biological target: T2, LSD2 (Homo sapiens, UniProt Q8NB78); assay: Lance Ultra demethylase TR-FRET enzyme inhibition assay, LSD2; format: biochemical; details: full-length LSD2 172 nM, Bio-H3K4me2 substrate, 1 h, mean ± SD, n = 3
T2 construct: full-length LSD2; by word order LSD2 from ActiveMotif
T2 sequence (Q8NB78 1-822): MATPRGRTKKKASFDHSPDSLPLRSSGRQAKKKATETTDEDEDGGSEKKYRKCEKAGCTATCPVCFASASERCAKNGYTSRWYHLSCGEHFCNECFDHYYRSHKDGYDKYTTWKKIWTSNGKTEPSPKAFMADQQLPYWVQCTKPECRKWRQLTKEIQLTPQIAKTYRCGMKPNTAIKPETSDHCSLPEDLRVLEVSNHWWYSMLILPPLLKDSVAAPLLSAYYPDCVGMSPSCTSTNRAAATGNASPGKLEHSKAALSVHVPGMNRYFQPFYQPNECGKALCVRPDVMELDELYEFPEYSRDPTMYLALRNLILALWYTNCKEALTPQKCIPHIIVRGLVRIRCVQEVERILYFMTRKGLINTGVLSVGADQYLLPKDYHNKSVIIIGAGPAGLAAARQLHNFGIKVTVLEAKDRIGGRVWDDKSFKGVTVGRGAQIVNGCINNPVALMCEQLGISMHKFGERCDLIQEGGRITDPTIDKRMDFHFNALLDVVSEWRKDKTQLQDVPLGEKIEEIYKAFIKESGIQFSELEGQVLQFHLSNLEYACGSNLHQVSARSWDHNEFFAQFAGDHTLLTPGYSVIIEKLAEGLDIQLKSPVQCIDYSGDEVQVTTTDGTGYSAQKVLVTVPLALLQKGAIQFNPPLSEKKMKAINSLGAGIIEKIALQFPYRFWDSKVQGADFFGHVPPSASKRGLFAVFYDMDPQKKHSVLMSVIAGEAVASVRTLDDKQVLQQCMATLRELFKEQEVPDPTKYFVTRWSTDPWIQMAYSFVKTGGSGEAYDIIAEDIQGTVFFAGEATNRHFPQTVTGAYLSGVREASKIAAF
From the text: as §1, §2

MV-4-11 cells = assay: MTS cell proliferation assay; format: cell-based; details: Homo sapiens, MV4-11, LSD1-addicted MV-4-11 leukemia cells, 72 h
Method: (§3) The myeloid leukemia cell lines MV-4-11, MOLT-4, MOLM-16, HL-60, and the human B lymphocyte cell line […] were purchased from the American Type Culture Collection (ATCC, Manassas, VA, United States). The myeloid leukemia cell line HAL-01 was obtained from the Deutsche Sammlung von Mikroorganismen und Zellkulturen GmbH (DSMZ, Braunschweig, Germany). All cells were cultured in IMDM or RPMI -1640 medium supplemented with 10% FBS, 100 U/mL penicillin, and 100 μg/mL streptomycin. The cells were maintained in a humidified incubator with an atmosphere of 5% CO2 at 37°C.
(§4) The in vitro anti-proliferative activity of the compounds was determined using the CellTiter 96® AQueous NonRadioactive Cell Proliferation Assay Kit (Promega, Madison, United States) as previously described ([Ji et al., 2017]). In brief, 5–10 × 10^3 cells and 180 μL of medium were first seeded into each well of a 96-well plate. Subsequently, the cells were exposed to either 0.2% Dimethyl sulfoxide (DMSO, Aladdin Reagent, Shanghai, China) or a serial dilution of the compounds, prepared from a 10 mM stock solution in DMSO, with the final concentration of DMSO being 0.2% for 72 h. 20 μL of MTS reagent was added to each well, and the culture was incubated in the dark at 37°C for 4 h. Finally, the optical density (OD) was then recorded at 490 nm and 690 nm using a microplate reader from Molecular Devices. The proliferation inhibition rate was calculated according to the following formula: inhibition ratio = (OD of DMSO treated wells - OD of compound treated wells)/(OD of DMSO treated wells - OD of blank wells) × 100%. The IC50 values of the compounds inhibiting cell proliferation were calculated using GraphPad Prism 10 (GraphPad Software Inc., San Diego, CA).

RPMI-8226 cells = assay: MTS cell proliferation assay; format: cell-based; details: Homo sapiens, LSD1-non-sensitive RPMI-8226 cells, 72 h
Method: as §3, §4

SMILES | LSD2/LSD1 selectivity (folds) (LSD1) | IC50 (LSD1) | IC50 (LSD2) | IC50 (MV-4-11 cells) | IC50 (RPMI-8226 cells)
O=C(O)c1ccc(CN2CCC(CN[C@@H]3C[C@H]3c3ccccc3)CC2)cc1 [GSK2879552, reference compound] | 4 folds | 0.0245 ± 0.00226 µM | 0.104 ± 0.00575 µM | 1.17 ± 0.28 µM | 21.3 ± 2.69 µM
O=S(=O)(c1cccc(-c2ccccc2)c1)N1CCc2cc(C3CC3NCC3CCNCC3)ccc21 (stereo not drawn) [LTM-2] | 215 folds | 0.0102 ± 0.00271 µM | 2.2 µM | 0.74 ± 0.06 µM | > 100 µM
O=S(=O)(c1ccc(CO)c(Cl)c1)N1CCc2cc(C3CC3NCC3CCNCC3)ccc21 (stereo not drawn) [LTM-3] | 668 folds | 0.00457 ± 0.00032 µM | 3.05 µM | 0.32 ± 0.04 µM | > 100 µM
O=S(=O)(c1cccc(CC2CCCCC2)c1)N1CCc2cc(C3CC3NCC3CCNCC3)ccc21 (stereo not drawn) [LTM-6] | >302 folds | 0.0165 ± 0.00239 µM | > 5 µM | 0.98 ± 0.07 µM | > 100 µM

Continued, values first:

LSD2/LSD1 selectivity (folds) (LSD1) | IC50 (LSD1) | IC50 (LSD2) | IC50 (MV-4-11 cells) | IC50 (RPMI-8226 cells) | SMILES
97 folds | 0.00892 ± 0.00057 µM | 0.861 ± 0.0267 µM | 0.63 ± 0.05 µM | > 100 µM | C=CCc1cccc(S(=O)(=O)N2CCc3cc(C4CC4NCC4CCNCC4)ccc32)c1 (stereo not drawn) [LTM-4]
92 folds | 0.00731 ± 0.00046 µM | 0.674 ± 0.0215 µM | 0.51 ± 0.03 µM | > 100 µM | O=S(=O)(c1cccc(CC2CC2)c1)N1CCc2cc(C3CC3NCC3CCNCC3)ccc21 (stereo not drawn) [LTM-5]
